Experimental data as given in patent US20240109865A1, “INDAZOLE COMPOUNDS AS KINASE INHIBITORS” (TYRA BIOSCIENCES, INC., priority 2020, published 2024).

Tests used:
[1] = molecular target: FGFR2 (Homo sapiens (Human), UniProt P21802); assay: Kinase assay, binding constants (Kd), kinase-tagged T7 phage, qPCR
How it was run: (§1)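 Competition binding: T7 phage-tagged kinase + biotin-ligand beads + compound (11 pts, 3-fold, 0.9% DMSO). Elution 30 min RT with free ligand; qPCR quantitation. Kd via Hill fit, slope −1.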

[2] = molecular target: FGFR4 (Homo sapiens (Human), UniProt P22455); assay: as above
How it was run: as §1

[3] = molecular target: FGFR3 (V555M) (Homo sapiens (Human), UniProt P22607, V555M); assay: as above; conditions: V555M mutant
How it was run: as §1

[4] = molecular target: FGFR1 (Homo sapiens (Human), UniProt P11362); assay: as above
How it was run: as §1

[5] = molecular target: FGFR3 (Homo sapiens (Human), UniProt P22607); assay: as above
How it was run: as §1

[6] = molecular target: FGFR1-BCR Ba/F3 cells (Homo sapiens, UniProt P11362); assay: Ba/F3 cell viability assay (CellTiter-Glo 2.0), FGFR1-BCR Ba/F3; assay type: cell-based; conditions: read-out: Ba/F3 Cells FGFR1 (IC50 nM), 48 hours, Cell Titer Glo 2.0
How it was run: (§2)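 IL3-independent Ba/F3 lines driven by FGFR1-BCR or FGFR3-BAIAP2L1 fusions, in RPMI1640/10% FBS. 9-dose 10-fold series from 30 μM, triplicate, 48 h at 37 °C; viability by CellTiter-Glo 2.0 ATP luminescence relative to DMSO control, IC50 from 4-parameter sigmoidal fit.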

[7] = system: UM-UC-14 cells (FGFR3(S249C)); assay: UM-UC-14 cancer cell line cell viability assay (CellTiter-Glo 2.0); assay type: cell-based; conditions: UMUC14, 72 hours, Cell Titer Glo 2.0
From the text: Experimental Purpose: To detect the change of intracellular ATP by Cell Titer-Glo® and to evaluate the inhibitory effect of the compounds on cancer cell lines by determining the in vitro IC50 value of the compounds.
Cell Titer-Glo® 2.0 Luminescent cell viability assay reagent was purchased from Promega (Madison, WI). RT112/84 and KG-1 cell lines were purchased from American Type Culture Collection (Manassas, VA). UM-UC-14 cell line was purchased from Sigma (St. Louis, MO). RT112/84, UM-UC-14, and KG-1 cells were cultured in RPMI1640 media supplemented with 10% fetal bovine serum. Cultures were maintained at 37° C. in a humidified atmosphere of 5% C02 and 95% air.
Cell Viability Assay Procedure: Cells were plated in 96-well clear bottom/white plates (Corning #3903) at 10,000 cells/well in 100 μl of media, incubated overnight. The next day, test compound DMSO stock solutions were made at 10 mM and 2 μM final concentration. Compounds were then added to cells in a 9-dose, 10-fold dilution series starting at 30 μM with an HP 300e Digital Dispenser (each dose was applied in triplicate). DMSO was backfilled to each well up to 301 nL total volume of test compound+DMSO, and a total of 301 nL DMSO was added to a control/no test compound well in triplicate. The cells in cell culture plates were incubated with the compounds at 37° C. and 5% C02 for 72 hours. Then 50 μl of Cell Titer Glo 2.0 reagent was added to each well of the cell culture plates. The contents were covered from light and mixed on an orbital shaker at room temperature for 10 min. Luminescence was recorded by a Synergy H1 Microplate Reader (Biotek, Winooski, VT). Cells were assessed as a percentage of DMSO only treated control cells. Curves were plotted and IC50 values were calculated using the GraphPad Prism 8 program based on a sigmoidal dose-response equation (4 parameter).

[8] = system: RT112/84 cells (FGFR3-fusion); assay: RT112/84 cancer cell line cell viability assay (CellTiter-Glo 2.0); assay type: cell-based; conditions: Homo sapiens, 72 hours, Cell Titer Glo 2.0
How it was run: (§3)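 RT112/84, UM-UC-14 and KG-1 cells (10,000/well, RPMI1640 with 10% FBS) were treated with a 9-dose, 10-fold series starting at 30 μM, in triplicate, for 72 h at 37 °C. ATP was read by CellTiter-Glo 2.0 luminescence relative to DMSO controls, and IC50 was fitted with a 4-parameter sigmoidal model.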

[9] = molecular target: FGFR3-BAIAP2L1 Ba/F3 cells (Homo sapiens, UniProt P22607); assay: Ba/F3 cell viability assay (CellTiter-Glo 2.0), FGFR3-BAIAP2L1 Ba/F3; assay type: cell-based; conditions: for Ba/F3 FGFR1/FGFR3 Selectivity: FGFR3 > FGFR1 selectivity ratio in Ba/F3 FGFR fusion cell based assays; for IC50: read-out: Ba/F3 Cells FGFR3 (IC50 nM), FGFR3-BAIAP2L1 Ba/F3 cells, 48 hours, Cell Titer Glo 2.0
How it was run: as §2

[10] = system: KG-1 cells (FGFR1-fusion); assay: KG-1 cancer cell line cell viability assay (CellTiter-Glo 2.0); assay type: cell-based; conditions: Homo sapiens, 72 hours, Cell Titer Glo 2.0
How it was run: as §3

Chain of FGFR4 (P22455 22-802): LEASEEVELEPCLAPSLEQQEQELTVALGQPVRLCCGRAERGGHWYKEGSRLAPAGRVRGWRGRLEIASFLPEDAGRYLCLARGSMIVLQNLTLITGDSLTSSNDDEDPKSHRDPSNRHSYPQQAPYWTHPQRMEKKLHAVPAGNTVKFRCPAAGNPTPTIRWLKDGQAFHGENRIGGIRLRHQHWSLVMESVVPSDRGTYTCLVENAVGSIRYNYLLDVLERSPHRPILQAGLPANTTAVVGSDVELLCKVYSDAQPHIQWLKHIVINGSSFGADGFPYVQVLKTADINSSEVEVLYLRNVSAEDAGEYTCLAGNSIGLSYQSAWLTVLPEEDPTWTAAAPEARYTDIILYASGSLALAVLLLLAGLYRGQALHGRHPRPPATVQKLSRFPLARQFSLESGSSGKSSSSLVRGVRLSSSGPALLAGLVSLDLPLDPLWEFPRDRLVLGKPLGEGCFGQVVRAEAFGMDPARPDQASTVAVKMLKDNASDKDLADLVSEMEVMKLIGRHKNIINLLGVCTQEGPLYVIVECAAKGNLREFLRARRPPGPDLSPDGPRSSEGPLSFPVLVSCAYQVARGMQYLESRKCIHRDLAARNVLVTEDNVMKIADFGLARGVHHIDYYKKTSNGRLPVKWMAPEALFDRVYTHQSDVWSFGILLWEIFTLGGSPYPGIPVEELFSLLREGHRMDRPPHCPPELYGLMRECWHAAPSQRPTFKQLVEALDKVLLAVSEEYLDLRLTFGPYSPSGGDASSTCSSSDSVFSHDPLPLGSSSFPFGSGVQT
Chain of FGFR3 (V555M) (P22607 23-806 V555M): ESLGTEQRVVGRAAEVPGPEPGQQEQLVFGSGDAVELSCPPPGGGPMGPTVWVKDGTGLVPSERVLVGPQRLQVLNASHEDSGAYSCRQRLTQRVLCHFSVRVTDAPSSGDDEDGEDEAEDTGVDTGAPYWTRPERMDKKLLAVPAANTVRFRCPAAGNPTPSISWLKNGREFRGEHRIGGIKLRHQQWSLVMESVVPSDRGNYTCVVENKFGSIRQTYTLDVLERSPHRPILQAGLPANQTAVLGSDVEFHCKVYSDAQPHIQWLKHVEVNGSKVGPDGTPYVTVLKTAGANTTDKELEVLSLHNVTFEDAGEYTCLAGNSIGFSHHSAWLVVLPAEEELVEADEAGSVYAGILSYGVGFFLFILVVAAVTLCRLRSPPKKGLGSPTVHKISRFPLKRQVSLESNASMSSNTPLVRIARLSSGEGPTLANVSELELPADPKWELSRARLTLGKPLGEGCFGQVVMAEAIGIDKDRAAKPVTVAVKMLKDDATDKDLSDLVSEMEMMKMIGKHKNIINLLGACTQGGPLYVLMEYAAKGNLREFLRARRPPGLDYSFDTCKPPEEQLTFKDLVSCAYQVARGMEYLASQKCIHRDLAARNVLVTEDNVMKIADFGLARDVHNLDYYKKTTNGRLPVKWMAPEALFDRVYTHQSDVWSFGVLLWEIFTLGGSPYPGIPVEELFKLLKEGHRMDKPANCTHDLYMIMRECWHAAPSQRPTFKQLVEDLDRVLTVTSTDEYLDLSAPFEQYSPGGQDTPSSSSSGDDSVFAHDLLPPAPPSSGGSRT
Chain of FGFR1 (P11362 22-822): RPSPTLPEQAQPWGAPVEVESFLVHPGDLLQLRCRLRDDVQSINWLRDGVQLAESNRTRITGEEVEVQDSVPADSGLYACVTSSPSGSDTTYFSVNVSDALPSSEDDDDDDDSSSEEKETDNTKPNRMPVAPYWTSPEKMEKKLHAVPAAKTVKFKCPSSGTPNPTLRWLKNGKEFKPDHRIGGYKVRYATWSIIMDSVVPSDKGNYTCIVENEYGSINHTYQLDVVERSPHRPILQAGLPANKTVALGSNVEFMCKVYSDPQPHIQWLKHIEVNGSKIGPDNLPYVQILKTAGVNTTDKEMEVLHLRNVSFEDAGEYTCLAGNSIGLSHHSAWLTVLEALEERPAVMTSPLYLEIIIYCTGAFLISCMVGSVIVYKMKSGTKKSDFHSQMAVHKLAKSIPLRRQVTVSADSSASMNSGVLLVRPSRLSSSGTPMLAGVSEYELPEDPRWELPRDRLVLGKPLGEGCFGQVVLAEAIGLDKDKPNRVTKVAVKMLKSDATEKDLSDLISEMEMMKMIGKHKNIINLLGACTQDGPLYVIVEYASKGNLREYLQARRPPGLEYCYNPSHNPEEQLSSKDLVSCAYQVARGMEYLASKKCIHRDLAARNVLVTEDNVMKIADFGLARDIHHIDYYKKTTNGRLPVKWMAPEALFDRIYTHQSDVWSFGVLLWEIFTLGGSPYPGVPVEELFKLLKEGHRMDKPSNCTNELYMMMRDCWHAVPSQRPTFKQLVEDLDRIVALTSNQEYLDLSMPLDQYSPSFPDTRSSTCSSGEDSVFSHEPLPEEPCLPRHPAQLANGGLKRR
Chain of FGFR1-BCR Ba/F3 cells (P11362 22-822 limits assumed, change not shown): as the sequence (P11362 22-822) above
Chain of FGFR3 (P22607 23-806): as the sequence (P22607 23-806 V555M) above, with M533V counted along it
Chain of FGFR3-BAIAP2L1 Ba/F3 cells (P22607 23-806 limits assumed, change not shown): as the sequence (P22607 23-806 V555M) above, with M533V counted along it
Chain of FGFR2 (P21802 22-821): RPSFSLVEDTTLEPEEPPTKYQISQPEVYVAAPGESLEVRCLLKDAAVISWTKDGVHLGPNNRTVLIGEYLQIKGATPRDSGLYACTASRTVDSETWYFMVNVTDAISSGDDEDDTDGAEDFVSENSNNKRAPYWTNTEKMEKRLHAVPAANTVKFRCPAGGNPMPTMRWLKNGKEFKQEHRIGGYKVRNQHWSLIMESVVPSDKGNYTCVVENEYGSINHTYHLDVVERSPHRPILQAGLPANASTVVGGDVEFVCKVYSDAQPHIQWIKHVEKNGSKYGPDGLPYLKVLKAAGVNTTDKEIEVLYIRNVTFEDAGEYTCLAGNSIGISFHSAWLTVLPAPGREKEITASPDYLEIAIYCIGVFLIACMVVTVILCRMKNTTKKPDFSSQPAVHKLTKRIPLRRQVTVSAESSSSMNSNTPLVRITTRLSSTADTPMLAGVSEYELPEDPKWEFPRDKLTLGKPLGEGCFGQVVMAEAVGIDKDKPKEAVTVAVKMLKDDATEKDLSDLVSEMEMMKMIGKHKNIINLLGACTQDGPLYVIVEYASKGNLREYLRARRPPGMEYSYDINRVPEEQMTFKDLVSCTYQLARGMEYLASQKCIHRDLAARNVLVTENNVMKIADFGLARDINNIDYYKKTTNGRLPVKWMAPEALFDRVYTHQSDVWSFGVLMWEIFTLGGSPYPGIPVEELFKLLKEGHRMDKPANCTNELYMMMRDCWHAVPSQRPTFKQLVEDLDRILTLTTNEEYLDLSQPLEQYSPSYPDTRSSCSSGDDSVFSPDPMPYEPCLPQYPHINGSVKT

| Structure (SMILES) | Kd [1] [nM] | Kd [2] [nM] | Kd [3] [nM] | Kd [4] [nM] | Kd [5] [nM] | IC50 [6] [nM] | IC50 [7] [nM] | IC50 [8] [nM] | Ba/F3 FGFR1/FGFR3 Selectivity [9] | IC50 [9] [nM] | IC50 [10] [nM] |
| --- | --- | --- | --- | --- | --- | --- | --- | --- | --- | --- | --- |
| C[C@@H](Oc1ccc2[nH]nc(-c3ccc(N4CCS(=O)(=O)CC4)nc3)c2c1)c1c(Cl)cncc1Cl [Example 1, 4-[5-[5-[(1R)-1-(3,5-dichloro-4-pyridyl)ethoxy]-1H-indazol-3-yl]-2-pyridyl]-1,4-thiazinane 1,1-dioxide] | 1 to 20 | 1 to 20 | 1 to 20 | 1 to 20 | 1 to 20 | 100 to 300 | 1 to 20 | 1 to 20 | 33 | 1 to 20 | 100 to 300 |
| C[C@@H](Oc1ccc2[nH]nc(-c3ccc(N4CCN(C(=O)N5CCOCC5)CC4)nc3)c2c1)c1c(Cl)cncc1Cl [Example 3, [4-[5-[5-[(1R)-1-(3,5-dichloro-4-pyridyl)ethoxy]-1H-indazol-3-yl]-2-pyridyl]piperazin-1-yl]-morpholino-methanone] | 1 to 20 | 1 to 20 | 1 to 20 | 1 to 20 | 1 to 20 | 20 to 100 | 1 to 20 | 1 to 20 | 18 | 1 to 20 | 20 to 100 |
| C[C@@H](Oc1ccc2[nH]nc(-c3ccc(N4CCN(C(=O)N5CCN(C)CC5)CC4)nc3)c2c1)c1c(Cl)cncc1Cl [Example 4, [4-[5-[5-[(1R)-1-(3,5-dichloro-4-pyridyl)ethoxy]-1H-indazol-3-yl]-2-pyridyl]piperazin-1-yl]-(4-methylpiperazin-1-yl)methanone] | 1 to 20 | 1 to 20 | 1 to 20 | 1 to 20 | 1 to 20 | 100 to 300 | 1 to 20 | 1 to 20 | 29 | 1 to 20 | 20 to 100 |
| C[C@@H](Oc1ccc2[nH]nc(-c3ccc(N4CCN(C(=O)N(C)C)CC4)nc3)c2c1)c1c(Cl)cncc1Cl [Example 5, 4-[5-[5-[(1R)-1-(3,5-dichloro-4-pyridyl)ethoxy]-1H-indazol-3-yl]-2-pyridyl]-N,N-dimethyl-piperazine-1-carboxamide] | 1 to 20 | 1 to 20 | 1 to 20 | 1 to 20 | 1 to 20 | 100 to 300 | 1 to 20 | 1 to 20 | 22 | 1 to 20 | 20 to 100 |
| C[C@@H](Oc1ccc2[nH]nc(-c3ccc(N4CCN(S(C)(=O)=O)CC4)nc3)c2c1)c1c(Cl)cncc1Cl [Example 6, 5-[(1R)-1-(3,5-dichloro-4-pyridyl)ethoxy]-3-[6-(4-methylsulfonyl-piperazin-1-yl)-3-pyridyl]-1H-indazole] | 20 to 100 | 1 to 20 | 1 to 20 | 1 to 20 | 1 to 20 | 20 to 100 | 1 to 20 | 1 to 20 | 13 | 1 to 20 | 20 to 100 |
| C[C@@H](Oc1ccc2[nH]nc(-c3ccc(N4CCN(S(=O)(=O)N5CCN(C)CC5)CC4)nc3)c2c1)c1c(Cl)cncc1Cl [Example 8, 5-[(1R)-1-(3,5-dichloro-4-pyridyl)ethoxy]-3-[6-[4-(4-methylpiperazin-1-yl)sulfonylpiperazin-1-yl]-3-pyridyl]-1H-indazole] | 20 to 100 | 1 to 20 | 1 to 20 | 20 to 100 | 1 to 20 | 100 to 300 | 1 to 20 | 1 to 20 | 16 | 1 to 20 | 100 to 300 |
| CCC(=O)N1CCN(c2ccc(-c3n[nH]c4ccc(O[C@H](C)c5c(Cl)cncc5Cl)cc34)cn2)CC1 [Example 9, 1-[4-[5-[5-[(1R)-1-(3,5-dichloro-4-pyridyl)ethoxy]-1H-indazol-3-yl]-2-pyridyl]piperazin-1-yl]propan-1-one] | 1 to 20 | 1 to 20 | 1 to 20 | 1 to 20 | 1 to 20 | 100 to 300 | 1 to 20 | 1 to 20 | 19 | 1 to 20 | 20 to 100 |
| C[C@@H](Oc1ccc2[nH]nc(-c3cnc(N4CCNCC4)c(F)c3)c2c1)c1c(Cl)cncc1Cl [Example 10, 5-[(1R)-1-(3,5-Dichloro-4-pyridyl)ethoxy]-3-(5-fluoro-6-piperazin-1-yl-3-pyridyl)-1H-indazole] | 1 to 20 | 1 to 20 | 1 to 20 | 1 to 20 | 1 to 20 | 20 to 100 | 1 to 20 | 1 to 20 | 9 | 1 to 20 | 20 to 100 |
| C[C@@H](Oc1ccc2[nH]nc(-c3cnc(N4CCNCC4)nc3)c2c1)c1c(Cl)cncc1Cl [Example 11, 5-[(1R)-1-(3,5-dichloro-4-pyridyl)ethoxy]-3-(2-piperazin-1-ylpyrimidin-5-yl)-1H-indazole] | 1 to 20 | 1 to 20 | 1 to 20 | 1 to 20 | 1 to 20 | 100 to 300 | 20 to 100 | 1 to 20 | 9 | 1 to 20 | 20 to 100 |
| C[C@@H](Oc1ccc2[nH]nc(-c3ccc(N4CCN(C(N)=O)CC4)nc3)c2c1)c1c(Cl)cncc1Cl [Example 12, 4-[5-[5-[(1R)-1-(3,5-dichloro-4-pyridyl)ethoxy]-1H-indazol-3-yl]-2-pyridyl]piperazine-1-carboxamide] | 1 to 20 | 1 to 20 | 1 to 20 | 1 to 20 | 1 to 20 | 100 to 300 | 1 to 20 | 1 to 20 | 19 | 1 to 20 | 20 to 100 |
| C[C@@H](Oc1ccc2[nH]nc(-c3cnc(N4CCN(C(=O)N5CCN(C)CC5)CC4)c(F)c3)c2c1)c1c(Cl)cncc1Cl [Example 13, [4-[5-[5-[(1R)-1-(3,5-Dichloro-4-pyridyl)ethoxy]-1H-indazol-3-yl]-3-fluoro-2-pyridyl]piperazin-1-yl]-(4-methylpiperazin-1-yl)methanone] | 1 to 20 | 1 to 20 | 1 to 20 | 1 to 20 | 1 to 20 | 100 to 300 | 20 to 100 | 1 to 20 | 11 | 20 to 100 | 20 to 100 |
| C[C@@H](Oc1ccc2[nH]nc(-c3cnc(N4CCN(S(C)(=O)=O)CC4)nc3)c2c1)c1c(Cl)cncc1Cl [Example 14, 5-[(1R)-1-(3,5-Dichloro-4-pyridyl)ethoxy]-3-[2-(4-methylsulfonylpiperazin-1-yl)pyrimidin-5-yl]-1H-indazole] | 20 to 100 | 1 to 20 | 1 to 20 | 1 to 20 | 1 to 20 | > 300 | 20 to 100 | 1 to 20 | 18 | 1 to 20 | 100 to 300 |
